From US20260234123A1, “Inhibitors of NLRP3” (Mwyngil Therapeutics, Inc., priority 2023, published 2026)

The molecules below were run on IL1b release THP-1 (assay: IL1b release THP-1 (ELISA)). Details: Homo sapiens; average EC50; THP-1 cells primed with 1 μg/ml LPS 4 h, stimulated with 10 μM Nigericin 2 h; IL-1β in supernatant by ELISA; read-out: THP 1 IL 1b, EC50.
Type: cell-based
Description: Example A. Primary Assays Used to Determine IL1b Release THP-1 (ELISA)
• Microbiological safety cabinet, classII (NuAire, USA) • CO2 incubator (VWR Science, USA) • Countess Automated Cell Counter (Invitrogen, USA, cat. number C10227) • Centrifuge CM 6M (Elmi, Latvia) • Serological pipettes 2, 5, 10, 25, 50, 100 ml sterile (Santa Cruz Biotechnology, Inc., USA, sc-200277, sc-200279, sc-200281, sc-200283, Sc-213234, sc-516777) • Single and multichannel pipettes 0.2-10 μL, 50-1200 μL (Eppendorf AG-Hamburg, Germany) • 50 mL PP sterile tubes (Greiner, cat. Number 210261).
• RPMI-1640 (PanEco, C330) • Sodium pyruvate (Paneco, cat. number Φ023) • Non-Essential amino acids 50× (Paneco, Φ116) • Essential amino acids 50× (Paneco, Φ115/50) • FBS (Hyclone Laboratories Inc, USA, SV30160.03) • Antibiotic-antimycotic (Gibco, USA, 15240-062) • 2-mercaptoethanol 1000×55 mM (Gibco, USA, 21985-023) • LPS-EB ultrapure (invivogen, cat. number tlrl-3pelps) • Nigericin (Sigma, cat. number N7143) • ELISA kit, IL-1beta (Cat #A-8766, Interleukin-1 beta-EIA-BEST, Vector Best). LPS Preparation (5 mg/ml): • 1. Add 1 ml of endotoxin-free water according manufacturer's protocol • 2. Vortex until complete solubilization • 3. Aliquote and store at […] for long term storage.
• 1. Add methanol to 10 mg of powder to produce the 10 mM Nigericin solution • 2. Vortex until complete solubilization • 3. Store at 4° C.
THP-1 cells were propagated in RPMI-1640 (10% FBS, Antibiotic-antimycotic 1×, non-Essential amino acids 1×, Essential amino acids 1×, Sodium pyruvate 2×, 2-mercaptoethanol 0.05 mM) at 37° C. and at 5% CO2 in an incubator.
• 1. THP-1 cells were spined at 100 g for 5 min in 50 ml tube. • 2. THP-1 cells were resuspended in warm culture medium (w/o FBS, w/o Antibiotic-antimycotic, non-Essential amino acids 1×, Essential amino acids 1×, Sodium pyruvate 2×) to the concentration 1,3×10^6 cells. • 3. THP-1 cells were primed in tube with 1 μg/ml of LPS for 4 h at 37° C. and at 5% CO2 in an incubator. • 4. THP-1 cells were stimulated with 10 μM of Nigericin (Cat #N7143-10 MG, Sigma Aldrich) for 2 h at 37° C. and at 5% CO2 in an incubator. • 5. After the full activation, the supernatant was collected and the levels of IL-1β were assessed via ELISA according manufacturer instructions (Cat #A-8766, Vector Best).
The average EC50 values are shown in Table A, wherein “A” corresponds to EC50: A≤0.5 μM, “B” corresponds to 0.5 μM<EC50≤1.0 μM, “C” 1.0 μM<EC50≤5.0 μM, “D” corresponds to 5.0 μM<EC50≤30 μM and “E” corresponds to EC50>30 μM.
Work on Cc1cc(N[C@@H]2CCCN(C(C)C)C2)nnc1-c1ccc(C(F)(F)F)cc1NC(=O)C(C)C [Compound 132, (R)—N-(2-(6-((1-Isopropylpiperidin-3-yl)amino)-4-methylpyridazin-3-yl)-5-(trifluoromethyl)phenyl) isobutyramide] yielded an EC50 of less than 0.5 µM. Cc1cc(N[C@@H]2CCCN(C(C)C)C2)nnc1-c1ccc(C(F)(F)F)cc1NC(=O)C(F)(F)C(F)(F)F [Compound 123, (R)-2,2,3,3,3-Pentafluoro-N-(2-(6-((1-isopropylpiperidin-3-yl)amino)-4-methylpyridazin-3-yl)-5-(trifluoromethyl)phenyl) propanamide] was tested, and the EC50 was 1 to 5 µM. Molecule Cc1cc(-c2ccc(C(F)(F)F)c3cn[nH]c23)nnc1N[C@@H]1CCCN(C)C1 [Compound 17, (R)-4-Methyl-N-(1-methylpiperidin-3-yl)-6-(4-(trifluoromethyl)-1H-indazol-7-yl)pyridazin-3-amine] has an EC50 of 5 to 30 µM. CCN1CCC[C@@H](Nc2nnc(-c3ccc(C(F)(F)F)cc3NS(=O)(=O)C3CC3)cc2C)C1 [Compound 64] was tested, and the EC50 was less than 0.5 µM. In the case of CCN1CCC[C@@H](Nc2cc(C)c(-c3ccc(C(F)(F)F)cc3NC(=O)C(F)(F)F)nn2)C1 [Compound 116, N-[2-[6-[[(3R)-1-ethyl-3-piperidyl]amino]-4-methyl-pyridazin-3-yl]-5-(trifluoromethyl)phenyl]-2,2,2-trifluoro-acetamide], the EC50 is reported as less than 0.5 µM. Molecule CCN1CCC[C@@H](Nc2cc(C)c(-c3ccc(C(F)(F)F)c4cn[nH]c34)nn2)C1 [Compound 15, (R)—N-(1-Ethylpiperidin-3-yl)-5-methyl-6-(4-(trifluoromethyl)-1H-indazol-7-yl)pyridazin-3-amine] has an EC50 of 1 to 5 µM. Cc1c(N[C@@H]2CCCN(C)C2)nnc(-c2ccc(C(F)(F)F)c3nn[nH]c23)c1C [Compound 22, (R)-4,5-dimethyl-N-(1-methylpiperidin-3-yl)-6-(4-(trifluoromethyl)-1H-benzo[d][1,2,3]triazol-7-yl)pyridazin-3-amine] was tested, and the EC50 was 5 to 30 µM. With Cc1cc(-c2ccc(C(F)(F)F)cc2NC(=O)C(C)C)nnc1N[C@@H]1CCCN(C(C)C)C1 [Compound 29, N-[2-[6-[[(3R)-1-isopropyl-3-piperidyl]amino]-5-methyl-pyridazin-3-yl]-5-(trifluoromethyl)phenyl]-2-methyl-propanamide] the EC50 was 1 to 5 µM. In the case of CN1CCC[C@@H](Nc2nnc(-c3ccc(C(F)(F)F)cc3NS(C)(=O)=O)c3c2CCCC3)C1 [Compound 50, (R)—N-(2-(4-((1-Methylpiperidin-3-yl)amino)-5,6,7,8-tetrahydrophthalazin-1-yl)-5-(trifluoromethyl)phenyl) methane sulfonamide], the EC50 is reported as 1 to 5 µM. For Cc1cc(-c2ccc(C(F)(F)F)cc2NS(C)(=O)=O)nnc1N[C@@H]1CCCN(C2CCOCC2)C1 [Compound 38, (R)—N-(2-(5-Methyl-6-((1-(tetrahydro-2H-pyran-4-yl)piperidin-3-yl)amino)pyridazin-3-yl)-5-(trifluoromethyl)phenyl) methanesulfonamide], the EC50 was less than 0.5 µM. Cc1cc(N[C@@H]2CCCN(CCO)C2)nnc1-c1ccc(C(F)(F)F)c2cn[nH]c12 [Compound 16, (R)-2-(3-((5-Methyl-6-(4-(trifluoromethyl)-1H-indazol-7-yl)pyridazin-3-yl)amino)piperidin-1-yl) ethan-1-ol] showed an EC50 of 1 to 5 µM. In the case of Cc1cc(N[C@@H]2CCCN(Cc3ccccc3)C2)nnc1-c1ccc(C(F)(F)F)cc1NS(C)(=O)=O [Compound 44, N-[2-[6-[[(3R)-1-benzyl-3-piperidyl]amino]-4-methyl-pyridazin-3-yl]-5-(trifluoromethyl)phenyl]methanesulfon-amide], the EC50 is reported as 0.5 to 1 µM. With CCN1CCC[C@@H](Nc2nnc(-c3ccc(C(F)(F)F)cc3NS(C)(=O)=O)cc2C2CC2)C1 [Compound 28, (R)—N-(2-(5-Cyclopropyl-6-((1-ethylpiperidin-3-yl)amino)pyridazin-3-yl)-5-(trifluoromethyl)phenyl) methane-sulfonamide] the EC50 was less than 0.5 µM. Work on CCN1CCC[C@@H](Nc2nnc(-c3ccc(C(F)(F)F)cc3NS(C)(=O)=O)cc2C(F)(F)F)C1 [Compound 45, N-[2-[6-[[(3R)-1-ethyl-3-piperidyl]amino]-5-(trifluoromethyl)pyridazin-3-yl]-5-(trifluoromethyl)phenyl]methanesulfon-amide] yielded an EC50 of 0.5 to 1 µM. Cc1cc(N[C@@H]2CCCN(C(C)C)C2)nnc1-c1ccc(C(F)(F)F)cc1N [Compound 110, (R)-6-(2-Amino-4-(trifluoromethyl)phenyl)-N-(1-isopropylpiperidin-3-yl)-5-methyl pyridazin-3-amine] was tested, and the EC50 was less than 0.5 µM. For CCN1CCC[C@@H](Nc2nnc(-c3ccc(C(F)(F)F)cc3NS(=O)(=O)CC)cc2C)C1 [Compound 62, (R)—N-(2-(6-((1-Ethylpiperidin-3-yl)amino)-5-methylpyridazin-3-yl)-5-(trifluoromethyl)phenyl) ethanesulfonamide], the EC50 was less than 0.5 µM. Molecule Cc1cc(-c2ccc(C(F)(F)F)cc2NS(C)(=O)=O)nnc1N[C@@H]1CCCN(CCO)C1 [Compound 9, (R)—N-(2-(6-((1-(2-Hydroxyethyl)piperidin-3-yl)amino)-5-methylpyridazin-3-yl)-5-(trifluoromethyl)phenyl) methanesulfonamide] has an EC50 of 0.5 to 1 µM. CN1CCC[C@@H](Nc2cc(C(F)(F)F)c(-c3ccc(C(F)(F)F)c4nn[nH]c34)nn2)C1 [Compound 23] was tested, and the EC50 was greater than 30 µM. CN1CCC[C@@H](Nc2nnc(-c3ccc(C(F)(F)F)c(N)c3N)cc2C(F)(F)F)C1 [Compound 102, 3-[6-[[(3R)-1-methyl-3-piperidyl]amino]-5-(trifluoromethyl)pyridazin-3-yl]-6-(trifluoromethyl)benzene-1,2-diamine] showed an EC50 of 5 to 30 µM. For Cc1cc(-c2ccc(C(F)(F)F)cc2NC(=O)C(F)(F)C(F)(F)F)nnc1N[C@@H]1CCCN(C(C)C)C1 [Compound 125, 2,2,3,3,3-pentafluoro-N-[2-[6-[[(3R)-1-isopropyl-3-piperidyl]amino]-5-methyl-pyridazin-3-yl]-5-(trifluoromethyl)phenyl]propanamide], the EC50 was 1 to 5 µM. With Cc1cc(N[C@@H]2CCCN(C3CCCC3)C2)nnc1-c1ccc(C(F)(F)F)cc1NS(C)(=O)=O [Compound 33] the EC50 was less than 0.5 µM. Molecule Cc1cc(N[C@@H]2CCCN(CC(C)C)C2)nnc1-c1ccc(C(F)(F)F)cc1NS(C)(=O)=O [Compound 46, (R)—N-(2-(6-((1-Isobutylpiperidin-3-yl)amino)-4-methylpyridazin-3-yl)-5-(trifluoromethyl)phenyl) methanesulfonamide] has an EC50 of 0.5 to 1 µM. Cc1cc(-c2ccc(C(F)(F)F)cc2Nc2ccccc2)nnc1N[C@@H]1CCCN(C(C)C)C1 [Compound 121, 6-[2-anilino-4-(trifluoromethyl)phenyl]-N-[(3R)-1-isopropyl-3-piperidyl]-4-methyl-pyridazin-3-amine] showed an EC50 of 0.5 to 1 µM. For CCN1CCC[C@@H](Nc2ccc(-c3c(C)cc(C(F)(F)F)cc3NS(C)(=O)=O)nn2)C1 [Compound 2, (R)—N-(2-(6-((1-Ethylpiperidin-3-yl)amino)pyridazin-3-yl)-3-methyl-5-(trifluoromethyl)phenyl) methanesulfonamide], the EC50 was 0.5 to 1 µM. CN1CCC[C@@H](Nc2nnc(-c3ccc(C(F)(F)F)c4nn[nH]c34)cc2C(F)(F)F)C1 [Compound 24] was tested, and the EC50 was greater than 30 µM. Cc1cc(N[C@@H]2CCCN(C)C2)nnc1-c1ccc(C(F)(F)F)c(N)c1N [Compound 100, (R)-3-(4-methyl-6-((1-methylpiperidin-3-yl)amino)pyridazin-3-yl)-6-(trifluoromethyl)benzene-1,2-diamine] was tested, and the EC50 was less than 0.5 µM. With CN1CCC[C@@H](Nc2nnc(-c3ccc(C(F)(F)F)cc3NS(C)(=O)=O)cc2C(F)(F)F)C1 [Compound 52, N-[2-[6-[[(3R)-1-methyl-3-piperidyl]amino]-5-(trifluoromethyl)pyridazin-3-yl]-5-(trifluoromethyl)phenyl]methanesulfon-amide] the EC50 was 1 to 5 µM.
